# Reference: publication PMC11354745, “Discovery of Novel Amino Acids (Analogues)-Substituted Thiophene[3,2-d]pyrimidine Derivatives as Potent HIV-1 Non-Nucleoside Reverse Transcriptase Inhibitors: Design, Synthesis, and Biological Evaluation” (International Journal of Molecular Sciences, 2024)
# Like-named read-outs stand apart in the source and are kept apart here.
# Columns and labels:
# [1] = Cytotoxicity in mock-infected MT-4 cells (MTT method); assay type: cell-based; settings: human
# Description: (§1) The antiviral potential and cytotoxic effects of the target compounds were assessed using the MTT assay in MT-4 cells, following established protocols. The HIV-1 (IIIB) strain, single mutant strains (L100I, K103N, Y181C, Y188L and E138K), double mutant strains (F227L + V106A and K103N + Y181C) and MT-4 cells were provided by the Rega Institute of Medicine at the University of Leuven, Belgium. These viral strains were propagated in MT-4 cells. The MT-4 cells were cultured in RPMI-1640 medium supplemented with 20 mM HEPES buffer (Life Technologies, Grand Island, NY, USA), 10% (v/v) heat-inactivated fetal calf serum (FCS), 2 mM L-glutamine, 0.1% sodium bicarbonate, and 20 μg/mL gentamicin. Cultures were maintained at 37 °C in a 5% CO2 atmosphere. The specific experimental procedures are detailed below.
# (§2) Initially, concentrated solutions of the test compounds were prepared at 10-fold the final desired concentration and added to triplicate wells in 25 µL aliquots to assess their impacts on both mock and HIV-infected MT-4 cells. Using a Biomek 3000 robot, these were diluted in a 96-well flat-bottomed microplate by mixing with medium, creating a series of 5-fold steps down in concentration. Each test included control groups of untreated infected and mock-infected cells to establish baselines for comparison. We introduced HIV-1 strains, both wild-type (IIIB) and drug-resistant variants harboring mutations L100I, K103N, Y181C, Y188L, E138K and F227L + V106A and the double mutant K103N + Y181C (RES056), at concentrations of 100–300 CCID50, into their respective wells. These strains served to mimic both typical and resistant infections. Additionally, mock-infected wells received an equal volume of culture medium to assess the compounds’ impacts on uninfected cells, thereby determining cytotoxicity. MT-4 cells in the exponential growth phase were pelleted by centrifugation at 1000 rpm for 5 min, after which the supernatant was removed. The cells were resuspended to a density of 6 × 10^5 cells/mL, and 50 µL of this suspension was added to each well. Post-infection, on the fifth day, cell viability in both mock and infected conditions was measured via the MTT assay using a spectrophotometer. The CC50 was identified as the concentration of the compound that caused a 50% reduction in the viability of the mock-infected cells, indicating cytotoxicity. Conversely, the EC50 represented the concentration that provided 50% protection against viral cytopathic effects in infected cells, signifying antiviral potency.
# [2] = system: HIV-1 double-mutant strain K103N+Y181C (RES056); assay: microbe, parasite or virus in culture; assay type: cell-based; settings: for EC50: Human immunodeficiency virus 1, MT4, read-out: EC50 RES056; for SI RES056: selectivity index, ratio CC50/EC50, RES056
# Description: (§3) All the target compounds were first evaluated for their antiviral activity against HIV-1 wild-type (WT) strain (IIIB) and the double-mutant strain K103N+Y181C (RES056) in the MT-4 cell line, using the MTT method.
# (§4) The antiviral potential and cytotoxic effects of the target compounds were assessed using the MTT assay in MT-4 cells, following established protocols. The HIV-1 (IIIB) strain, single mutant strains (L100I, K103N, Y181C, Y188L and E138K), double mutant strains (F227L + V106A and K103N + Y181C) and MT-4 cells were provided by the Rega Institute of Medicine at the University of Leuven, Belgium. These viral strains were propagated in MT-4 cells. […] The specific experimental procedures are detailed below.
# as §2, with “We introduced HIV-1 strains, both wild-type (IIIB) and drug-resistant variants harboring mutations L100I, K103N, Y181C, Y188L, E138K and F227L + V106A and the double mutant K103N + Y181C (RES056), at concentrations of 100–300 CCID50, into their respective wells.” left out, “spectrophotometer.” for “spectrophotometer. The CC50 was identified as the concentration of the compound that caused a 50% reduction in the viability of the mock-infected cells, indicating cytotoxicity. Conversely, the EC50 represented the concentration that provided 50% protection against viral cytopathic effects in infected cells, signifying antiviral potency.”
# [3] = system: HIV-1 wild-type (WT) strain (IIIB); assay: Anti-HIV activity in MT-4 cells (MTT method), HIV-1 IIIB; assay type: cell-based; settings: for EC50: Human immunodeficiency virus 1, IIIB, MT4, read-out: EC50 IIIB; for SI IIIB: selectivity index, ratio CC50/EC50, IIIB
# Description: as §3, §4
# as §2, with “We introduced HIV-1 strains, both wild-type (IIIB) and drug-resistant variants harboring mutations L100I, K103N, Y181C, Y188L, E138K and F227L + V106A and the double mutant K103N + Y181C (RES056), at concentrations of 100–300 CCID50, into their respective wells.” left out, “spectrophotometer.” for “spectrophotometer. The CC50 was identified as the concentration of the compound that caused a 50% reduction in the viability of the mock-infected cells, indicating cytotoxicity. Conversely, the EC50 represented the concentration that provided 50% protection against viral cytopathic effects in infected cells, signifying antiviral potency.”
# [4] = system: HIV-1 Y188L mutant strain; assay: Anti-HIV activity in MT-4 cells (MTT method), Y188L; assay type: cell-based; settings: Human immunodeficiency virus 1, MT4, read-out: EC50 Y188L
# From the text: (§5) All the target compounds were first evaluated for their antiviral activity against HIV-1 wild-type (WT) strain (IIIB) and the double-mutant strain K103N+Y181C (RES056) in the MT-4 cell line, using the MTT method. The potent inhibitors were selected to assess their efficacy against other strains resistant to NNRTIs, including L100I, K103N, Y181C, Y188L, E138K and the double-mutant strain F227L+V106A. The approved drugs NVP, EFV and ETR were selected as reference drugs. The biological evaluation results of the test compounds, presented as EC50 (anti-HIV potency), CC50 (cytotoxicity) and SI (selectivity index, CC50/EC50 ratio), are summarized in Table 1 and Table 2.
# as §1, §2
# [5] = system: HIV-1 L100I mutant strain; assay: Anti-HIV activity in MT-4 cells (MTT method), L100I; assay type: cell-based; settings: Human immunodeficiency virus 1, MT4, read-out: EC50 L100I
# From the text: as §5, §1, §2
# [6] = system: HIV-1 E138K mutant strain; assay: Anti-HIV activity in MT-4 cells (MTT method), E138K; assay type: cell-based; settings: Human immunodeficiency virus 1, MT4, read-out: EC50 E138K
# From the text: as §5, §1, §2
# [7] = system: HIV-1 double-mutant strain F227L+V106A; assay: Anti-HIV activity in MT-4 cells (MTT method), F227L+V106A; assay type: cell-based; settings: Human immunodeficiency virus 1, MT4, read-out: EC50 F227L/V106A
# From the text: as §5, §1, §2
# [8] = system: HIV-1 K103N mutant strain; assay: Anti-HIV activity in MT-4 cells (MTT method), K103N; assay type: cell-based; settings: Human immunodeficiency virus 1, MT4, read-out: EC50 K103N
# From the text: as §5, §1, §2
# [9] = system: HIV-1 Y181C mutant strain; assay: Anti-HIV activity in MT-4 cells (MTT method), Y181C; assay type: cell-based; settings: Human immunodeficiency virus 1, MT4, read-out: EC50 Y181C
# From the text: as §5, §1, §2
# [10] = molecular target: T1, WT HIV-1 RT (Human immunodeficiency virus type 1 group M subtype B, UniProt P03366); assay: HIV-1 RT inhibition assay (Roche kit, ELISA); assay type: biochemical
# T1 construct: viral nucleotides (dNTPs) and the HIV-1 RT enzyme in an incubation buffer; purchased Roche
# From the text: An assay kit for HIV-1 reverse transcriptase (RT) from Roche was utilized to assess RT inhibition. The kit provided all necessary components for the RT reaction, and the enzyme-linked immunosorbent assay (ELISA) methodology for the inhibition assay was executed according to the kit’s instructions. […] Unbound dNTPs were washed away, and an anti-[…] (DIG)-POD working solution was introduced. […] Excess anti-DIG-POD was removed, and a peroxidase substrate (ABTS) solution was applied to the MTPs. […] The percentage of the inhibitory activity of the RT inhibitors was calculated by formula, as given below:
# % Inhibition = [O.D. value with RT but without inhibitors − O.D. value with RT and inhibitors]/[O.D. value with RT […] − O.D. value without RT and inhibitors].
# [11] = reduces viability of mock-infected MT-4 cell cultures by 50%, MTT method, read-out: CC50
Compound,melting point [°C],CC50 at 5 days ([1]; CC50) [nM],EC50 [2] [nM],EC50 [3] [nM],SI IIIB [3],EC50 [4] [nM],EC50 [5] [nM],"CC50 at 5 days [1, 11] [nM]",EC50 [6] [nM],EC50 [7] [nM],EC50 [8] [nM],EC50 [9] [nM],SI RES056 [2],IC50 [10] [nM]
Cc1cc(C#N)cc(C)c1Oc1nc(Nc2ccc(NC(=O)[C@@H](NC(=O)OC(C)(C)C)C(C)C)cc2)nc2ccsc12 [5f],158 to 160,> 213000,> 213000,848 ± 247,>251,–,–,–,–,–,–,–,–,–
"O=C1Nc2ccc(Cl)cc2[C@@](C#CC2CC2)(C(F)(F)F)O1 [EFV, efavirenz, reference compound]",–,–,698 ± 449,6 ± 2,–,280 ± 91,54 ± 36,> 6350,10 ± 5,329 ± 228,132 ± 50,8 ± 1,–,–
Cc1cc(C#N)cc(C)c1Oc1nc(Nc2ccc(NC(=O)CN(C)C(=O)OC(C)(C)C)cc2)nc2ccsc12 [5o],–,5840 ± 1180,–,863 ± 253,7,–,–,–,–,–,–,–,–,–
Cc1cc(C#N)cc(C)c1Oc1nc(Nc2ccc(NC(=O)[C@H](Cc3cn(C(=O)OC(C)(C)C)cn3)NC(=O)OC(C)(C)C)cc2)nc2ccsc12 [5c],236 to 238,19600 ± 720,> 19600,672 ± 648,29,–,–,–,–,–,–,–,<1,–
"Cc1ccnc2c1NC(=O)c1cccnc1N2C1CC1 [NVP, nevirapine, reference compound]",–,–,> 15000,236 ± 114,–,9870 ± 2470,1740 ± 879,> 15000,181 ± 67,7500 ± 2590,4090 ± 3710,8040 ± 1680,–,–
Cc1cc(C#N)cc(C)c1Oc1nc(Nc2ccc(NC(=O)C(N)Cc3c[nH]c4ccccc34)cc2)nc2ccsc12 (stereo not drawn) [5b],224 to 227,22400 ± 560,> 22400,89 ± 43,250,–,–,–,–,–,–,–,<1,–
CNCC(=O)Nc1ccc(Nc2nc(Oc3c(C)cc(C#N)cc3C)c3sccc3n2)cc1 [5j],171 to 173,17300 ± 11500,> 17300,242 ± 65,72,–,–,–,–,–,–,–,<1,–
Cc1cc(C#N)cc(C)c1Oc1nc(Nc2ccc(NC(=O)C3CCCN3C(=O)OC(C)(C)C)cc2)nc2ccsc12 (stereo not drawn) [5g],236 to 238,191000,> 191000,924 ± 242,206,–,–,–,–,–,–,–,<1,–
Cc1cc(C#N)cc(C)c1Oc1nc(Nc2ccc(NC(=O)C3CC(O)CN3)cc2)nc2ccsc12 (stereo not drawn) [5l],–,26800 ± 1070,> 26800,59 ± 10,451,2740 ± 103,1480 ± 545,–,314 ± 95,2190 ± 45,72 ± 18,2600 ± 225,<1,1710 ± 298
"Cc1cc(C#N)cc(C)c1Oc1nc(Nc2ccc(C#N)cc2)nc(N)c1Br [ETR, etravirine, reference compound]",–,> 4610,40 ± 11,3 ± 1,–,21 ± 8,–,–,9 ± 4,9 ± 4,3 ± 1,15 ± 5,–,–
Cc1cc(C#N)cc(C)c1Oc1nc(Nc2ccc(NC(=O)[C@@H](CC(C)C)NC(=O)OC(C)(C)C)cc2)nc2ccsc12 [5m],–,> 208000,> 208000,9860 ± 1180,>21,–,–,–,–,–,–,–,–,–
Cc1cc(C#N)cc(C)c1Oc1nc(Nc2ccc(NC(=O)C3CC(O)CN3C(=O)OC(C)(C)C)cc2)nc2ccsc12 (stereo not drawn) [5p],–,22500 ± 391,–,2580 ± 520,9,–,–,–,–,–,–,–,–,–
Cc1cc(C#N)cc(C)c1Oc1nc(Nc2ccc(NC(=O)[C@H](Cc3ccccc3)NC(=O)OC(C)(C)C)cc2)nc2ccsc12 [5d],220 to 222,> 197000,> 197000,771 ± 236,>256,–,–,–,–,–,–,–,–,–
Cc1cc(C#N)cc(C)c1Oc1nc(Nc2ccc(NC(=O)C(Cc3c[nH]c4ccccc34)NC(=O)OC(C)(C)C)cc2)nc2ccsc12 (stereo not drawn) [5a],205 to 208,> 186000,> 186000,940 ± 278,>197,–,–,–,–,–,–,–,–,–
